Experimental data published in patent US5789188A, “Tetracycline-efflux pump inhibitor screening methods” (priority 1996, dated 1998).
≈ marks a conversion by molar mass, not a printed value. Like-named read-outs stand apart in the source and are kept apart here.

How the values were obtained:
[1] = tested on: E. coli MC1061 containing pGG75; assay: MIC (LD 90) of maximally induced tetC (plasmid pGG75); format: cell-based; conditions: Escherichia coli, read-out: MIC (LD 90) of Maximally Induced tetC, pGG75
Procedure: (§1) E. coli MC1061 containing either pGG57, pCBSal or pGG75 were used to determine the MIC (LD 90) for tetracycline as well as six tetracycline analogs. […] MIC studies were performed in the presence of 0.01 mM IPTG for E. coli MC1061 containing pGG57. […] All of these MIC studies were done in duplicate.

strain KB4 [2] = assay: microbe, parasite or virus in culture; conditions: Escherichia coli, read-out: tetracycline resistance conferred
[3] = tested on: Tn10 derivative of KB3ind; assay: microbe, parasite or virus in culture; conditions: Escherichia coli, read-out: tetracycline resistance
[4] = tested on: tetracycline efflux pump (strain KB4 or KB5); assay: Inhibition Assay, plate assay (agar with 5 ng/ml of tetracycline); format: cell-based, E. coli; conditions: strain KB4 or KB5, spotted on plate
Procedure: (§2) To detect tetracyclines, a plate assay is developed that is similar to one described previously (11). Cells are grown in Luria Broth (adjusted with NaOH to pH 7.5) with 25 μg/ml of kanamycin to a cell density of 0.5 absorbance units (600 nm). A 25 ml sample of the culture is harvested by centrifugation and resuspended in 1 ml of broth. The cells are mixed with 25 ml of soft agar (1%, wt/vol) and poured onto 100 ml of LB (pH 7.5)+ kanamycin, within a 22 cm^2 NUNC plate (Corning). Samples are applied by spotting from 2 to 15 μl, or by applying a disc impregnated with a compound, and the plate is incubated for 3-4 hours at 37° C. The plates are overlaid with a solution containing 13.5 mg of 6-bromo-2-naphthyl-β-D-galactopyranoside side and 86.5 mg of fast blue RR (Sigma) dissolved in 2 ml of dimethylsulfoxide, to which 25 ml of soft agar is added. β-Galactosidase is detected by the presence of a purple spot.
Two assays are developed for detecting inhibitors of the tetA gene product (using strain KB5), or the tetK gene product (using strain KB4). In the Inhibition Assay, cells of strain KB4 or KB5 are treated as described in the tetracycline screen above, except that the agar medium contains 5 ng/ml of tetracycline. Alternatively a Liquid Assay is also developed. Cells are first grown in LB (pH 7.5). Then cells are shifted to medium containing 5 ng/ml of tetracycline, and tetracycline-containing samples are added to aliquots. Cells are then incubated and assayed as described for the Tetracycline Assay. […] However, the intracellular concentration is reduced in tetracycline resistant strains due to the action of the efflux pump, so more tetracycline would be required in the medium to accumulate sufficient tetracycline inside the cell to induce. The Inhibition Assay is designed to detect compounds that cause β-galactosidase induction in the presence of sub-inducing levels of tetracycline for a resistant strain.

strain KB3ind [5] = assay: Tetracycline liquid assay (β-galactosidase, Miller Units); format: cell-based, E. coli; conditions: Escherichia coli
Procedure: (§3) Alternatively, a liquid assay is also used. Cells are grown in LB (pH 7.5), and tetracycline-containing samples are added to aliquots when the density of the culture is 0.1 OD units. After 3-4 generations of the cells, each aliquot is measured for β-galactosidase activity as described (10, 12) and Miller Units (12) are determined. […] For both the plate and liquid assays, this strain is more sensitive than a previously reported screening organism (11).

[6] = tested on: strains containing pCB258; assay: microbe, parasite or virus in culture; conditions: Escherichia coli
[7] = tested on: Tn10 derivative of strain KB3ind; assay: Induction in liquid culture, Tn10 strain; format: cell-based, E. coli; conditions: Escherichia coli, read-out: concentration for full induction of β-galactosidase, Tn10 strain, liquid culture
Procedure: (§4) Cells are added to tetracycline to the final concentration indicated as described in FIG. 7. The sensitive strain is the tetracycline screening organism KB3ind, which induces fully when grown in the presence of 5-10 ng/ml of tetracycline. In contrast, the strain containing the Tn10 element, conferring strong tetracycline resistance, induces fully when the concentration of tetracycline is above 1 μg/ml.
as §3

strain KB4 [8] = assay: Induction in liquid culture, strain KB4; format: cell-based, E. coli; conditions: Escherichia coli, read-out: concentration for full induction of β-galactosidase
Procedure: as §4, §3

[9] = tested on: strain MC1061 with plasmid pGG58; assay: microbe, parasite or virus in culture; conditions: Escherichia coli, read-out: tetracycline resistance
strain KB5 = assay: MIC of strain KB5; format: cell-based, E. coli; conditions: Escherichia coli
strain KB3ind [10] = format: cell-based, E. coli; conditions: strain KB3ind; plate assay (plate or liquid assay)
Procedure: as §2

[11] = tested on: E. coli MC1061 containing pGG57; assay: microbe, parasite or virus in culture; format: cell-based; conditions: Escherichia coli
Procedure: as §1

[12] = tested on: E. coli MC1061 containing pCBSal; assay: MIC (LD 90) of maximally induced tetA (plasmid pCBSal); format: cell-based; conditions: Escherichia coli, read-out: MIC (LD 90) of Maximally Induced tetA, pCBSal
Procedure: as §1

## CN(C)C1C(=O)C(C(N)=O)=C(O)C2(O)C(=O)C3=C(O)c4c(O)cccc4C(C)(O)C3CC12 (centres unmarked) [Tetracycline]
[1]
  MIC: 100 µg/mL (≈ 225 µM)
Strain KB4 [2]
  MIC: < 10 µg/mL
[3]
  MIC: > 100 µg/mL
[4]
  Tetracycline Detection, amount detected in Inhibition plate assay: ≥ 1 ng
[4]; listed as tetracycline
  Tetracycline Detection, amount detected in Inhibition plate assay: 1 ng
Strain KB3ind [5]; liquid culture, read-out: concentration for full induction of β-galactosidase
  EC (full induction): 0.005 to 0.01 µg/mL
Strain KB3ind [5]; read-out: lowest concentration detected in liquid assay
  minimal effective concentration: 0.0001 µg/mL
[6]; PCB258
  MIC: 50 µg/mL (≈ 113 µM)
[6]; PCB258, read-out: tetracycline resistance conferred
  MIC: 40 µg/mL (≈ 90 µM)
[7]
  EC (full induction): > 1 µg/mL
Strain KB4 [8]
  EC (full induction): 0.03 µg/mL
[9]
  MIC: 15 µg/mL (≈ 33.8 µM)
Strain KB5
  MIC: ~10 µg/mL
Strain KB3ind [10]
  response in the Tetracycline Assay (β-galactosidase induction): capable of detecting
[11]; read-out: MIC (LD 90) of Maximally Induced tetK, pGG57
  MIC: 125 µg/mL (≈ 281 µM)
[11]; read-out: tetracycline resistance conferred
  MIC: 25 µg/mL (≈ 56.3 µM)
[12]
  MIC: 150 µg/mL (≈ 338 µM)
